Test results: patent publication US8273775B2, “Non-steroidal brassinosteroid mimetic” (priority 2006, dated 2012)

What was measured:
AtMPK4 = biological target: T1, AtMPK4 (Arabidopsis thaliana, UniProt Q39024); assay: Kinase assay with AtMPK4 and MBP as substrate; assay type: biochemical; settings: 10 μM abrasin
T1 sequence (Q39024 1-376): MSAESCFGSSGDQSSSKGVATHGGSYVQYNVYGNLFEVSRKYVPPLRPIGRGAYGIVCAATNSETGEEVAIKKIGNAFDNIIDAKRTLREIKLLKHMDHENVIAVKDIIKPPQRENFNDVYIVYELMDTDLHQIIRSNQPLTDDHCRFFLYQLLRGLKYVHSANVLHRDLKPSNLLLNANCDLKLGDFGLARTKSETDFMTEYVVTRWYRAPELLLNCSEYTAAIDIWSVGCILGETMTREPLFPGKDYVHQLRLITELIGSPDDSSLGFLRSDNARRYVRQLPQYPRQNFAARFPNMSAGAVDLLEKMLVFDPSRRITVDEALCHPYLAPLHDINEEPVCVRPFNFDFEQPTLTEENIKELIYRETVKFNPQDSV
Experimental: (§1) Coomassie staining was used as a loading control. b, Autoradiography of kinase assays with nine ASKs with MBP as a substrate in the presence or absence of 10 μM abrasin. The second member of group IV, ASKκ, had no kinase activity and was not included in the analysis. c, Autoradiography of kinase assays with AtMPK4, AtMPK6 and MBP as a substrate (left) and with AtAUR1 kinase and histone H3 as a substrate (right) in the presence or absence of 10 μM abrasin.
(§2) For in vitro kinase assays, MBP, MBP-BES1, and MBP-bes1 (20 ng each) were incubated with GST-BIN2 or GST-BRI1 kinase (200 ng each) in 20 μl of kinase buffer (20 mM Tris [pH 7.5], 100 mM NaCl, and 12 mM MgCl2) and 10 μCi ^32P-γATP. After incubation at 37° C. for 40 min, the reactions were stopped by adding 20 μl of 2×SDS buffer and boiling at 94° C. for 5 min. Proteins were resolved by a PAGE gel and phosphorylation was detected by exposing the dried gel to X-ray film. […]
(§3) Besides BIN2, nine additional GSK-3 kinases (also designated ASKs for Arabidopsis SHAGGY-related kinases) divided into four subgroups (I-IV) have been identified in Arabidopsis (Jonak and Hirt, 2002; Yoo et al. 2006). To determine the specificity of abrasin, its effect on the kinase activity of all ASKs was analyzed with myelin basic protein (MBP) as a general substrate. […]

ASKβ (group III) = biological target: T2, ASKβ (group III) (Arabidopsis thaliana, UniProt O23145); assay: ASK kinase assay with MBP as substrate, ASKβ; assay type: biochemical; settings: 10 μM abrasin
T2 sequence (O23145 1-431): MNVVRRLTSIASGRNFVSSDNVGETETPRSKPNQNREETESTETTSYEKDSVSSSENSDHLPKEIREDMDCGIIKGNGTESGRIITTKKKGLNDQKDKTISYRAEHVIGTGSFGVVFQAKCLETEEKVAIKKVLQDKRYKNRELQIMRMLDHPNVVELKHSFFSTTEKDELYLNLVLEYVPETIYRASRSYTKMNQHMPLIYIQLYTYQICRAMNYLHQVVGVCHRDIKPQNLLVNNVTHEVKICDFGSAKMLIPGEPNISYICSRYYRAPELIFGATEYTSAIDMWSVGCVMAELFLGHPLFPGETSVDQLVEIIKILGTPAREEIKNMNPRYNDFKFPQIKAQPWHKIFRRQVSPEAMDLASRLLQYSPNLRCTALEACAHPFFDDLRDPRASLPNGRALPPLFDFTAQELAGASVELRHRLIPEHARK
Experimental: Coomassie staining was used as a loading control. b, Autoradiography of kinase assays with nine ASKs with MBP as a substrate in the presence or absence of 10 μM abrasin.
(§4) For in vitro kinase assays, MBP, MBP-BES1, and MBP-bes1 (20 ng each) were incubated with GST-BIN2 or GST-BRI1 kinase (200 ng each) in 20 μl of kinase buffer (20 mM Tris [pH 7.5], 100 mM NaCl, and 12 mM MgCl2) and 10 μCi ^32P-γATP. After incubation at 37° C. for 40 min, the reactions were stopped by adding 20 μl of 2×SDS buffer and boiling at 94° C. for 5 min. Proteins were resolved by a PAGE gel and phosphorylation was detected by exposing the dried gel to X-ray film. Proteins from 35S::bes1-GFP transgenic plants were used for phosphatase (CIP) treatments as described (Fankhauser et al., 1999).
Besides BIN2, nine additional GSK-3 kinases (also designated ASKs for Arabidopsis SHAGGY-related kinases) divided into four subgroups (I-IV) have been identified in Arabidopsis (Jonak and Hirt, 2002; Yoo et al. 2006). To determine the specificity of abrasin, its effect on the kinase activity of all ASKs was analyzed with myelin basic protein (MBP) as a general substrate.

[1] = tested on: Arabidopsis thaliana seedlings; assay: Chemical genetics screening for brassinosteroid-related phenotypes; assay type: in vivo; settings: young seedlings
Experimental: A commercial 10.000 compound library (DiverSet, ChemBridge, USA) was screened for brassinosteroid related phenotypes. Three to four Arabidopsis thaliana (L.) Heynh. seeds were sown in 96-well filterplates (Multiscreen HTS MSBVS1210, Millipore, USA) in liquid medium derived from standard Murashige and Skoog (MS) medium in a growth chamber under continuous light (110 μE.m^2. s^1 photosynthetically active radiation, supplied by cool-white fluorescent tungsten tubes; Osram) at 22° C. Three days after germination compounds were added to the 96-well plates at a final concentration of 50 μM. Plants were screened six days after germination for brassinosteroid-related phenotypes.
For further phenotypical analysis, all plants were grown on vertically oriented square plates (Greiner Labortechnik, Austria) with solid medium derived from standard Murashige and Skoog medium under the same conditions. For the hypocotyl-elongation assay, plants were grown in the dark at 22° C. under the same conditions.

[2] = tested on: group II GSK-3 kinases (ASKs) including BIN2; assay: ASK kinase assay with MBP as substrate, group II; assay type: biochemical, Arabidopsis; settings: 10 μM abrasin
Experimental: as §1, §2, §3

BIN2 kinase = biological target: T3, BIN2 kinase (Arabidopsis thaliana, UniProt Q39011); assay: In vitro kinase assay GST-BIN2 with MBP-BES1; assay type: biochemical
T3 sequence (Q39011 1-380): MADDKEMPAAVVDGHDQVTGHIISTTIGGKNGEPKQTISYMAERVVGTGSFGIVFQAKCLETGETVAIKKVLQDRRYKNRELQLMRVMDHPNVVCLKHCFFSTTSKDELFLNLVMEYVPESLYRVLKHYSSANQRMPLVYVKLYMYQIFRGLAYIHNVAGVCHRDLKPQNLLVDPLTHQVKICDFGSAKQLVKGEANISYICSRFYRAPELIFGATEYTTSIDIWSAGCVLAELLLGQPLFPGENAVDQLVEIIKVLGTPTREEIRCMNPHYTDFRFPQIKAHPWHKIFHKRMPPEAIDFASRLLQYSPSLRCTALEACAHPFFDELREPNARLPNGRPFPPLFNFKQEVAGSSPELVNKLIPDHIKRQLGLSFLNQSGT
Experimental: as §1, §4

O=C(O)CCC(=O)Nc1ccc(Br)cn1 [abrasin, 4-[(5-bromo-2-pyridinyl)amino]-4-oxobutanoic acid]
effect on kinase activity (AtMPK4): no effect | effect on kinase activity (ASKβ (group III)): not affected | elongation of leaves, petioles and the hypocotyl [1]: strongly induced elongation of leaves, petioles and the hypocotyl in a dosage-dependent manner | residual activity [2]: 1-2 | concentration at which inhibitory effect was already apparent (BIN2 kinase): lower than 2.5 μM | BIN2 kinase activity towards its substrate BES1 (BIN2 kinase; 0 to 10 μM): strongly reduced BIN2 kinase activity towards its substrate BES1 in a dose-dependent manner | inhibitory effect on BIN2 kinase activity (BIN2 kinase; at 10 μM): dramatic
